# Measured values as given in the OPERA property sets (Mansouri et al. 2018).
row,Structure (SMILES),logP
1,NC1=NCC(CN2CCN(c3ccc(Cl)cc3)CC2)O1 (stereo not given),1.71
2,NC1=NCC(CN2CCN(c3cccc(C(F)(F)F)c3)CC2)O1 (stereo not given),2.21
3,NC1=NCC(CN2CCN(c3ccc(Cl)c(Cl)c3)CC2)O1 (stereo not given),2.4
4,NC1=NCC(CN2CCN(c3ccccn3)CC2)O1 (stereo not given),0.48
5,NC1=NCC(CN2CCN(c3cccc(Cl)c3)CC2)O1 (stereo not given),1.83
6,Cc1ccc(N2CCN(CC3CN=C(N)O3)CC2)cc1 (stereo not given),1.23
7,NC1=NCC(CN2CCN(c3ncccn3)CC2)O1 (stereo not given),0.21
8,NC1=NCC(CN2CCN(c3ccc(F)cc3)CC2)O1 (stereo not given),1
9,COc1ccc(N2CCN(CC3CN=C(N)O3)CC2)cc1 (stereo not given),0.68

# Second part, the compound after the results:
row,logP,Structure (SMILES)
1,0.76,COc1ccccc1N1CCN(CC2CN=C(N)O2)CC1 (stereo not given)
2,2.19,Cc1cccc(N2CCN(CC3CN=C(N)O3)CC2)c1C (stereo not given)
3,0.85,NC1=NCC(CN2CCN(c3ccccc3)CC2)O1 (stereo not given)
4,1.87,NC1=NCC(CN2CCN(c3ccccc3Cl)CC2)O1 (stereo not given)
5,1.21,CCOc1ccccc1N1CCN(CC2CN=C(N)O2)CC1 (stereo not given)
6,0.87,COc1cccc(N2CCN(CC3CN=C(N)O3)CC2)c1 (stereo not given)
